Laboratory results taken from patent US5726325A, “Tricyclic compounds” (Kyowa Hakko Kogyo Co., Ltd., priority 1995, dated 1998).

Assays:
[1] = test system: detrusor muscle; test: Test Example 2: relaxation of guinea pig bladder strips, rhythmical contraction induced by 15 mM KCl; type: cell-based, guinea pig (male albino Hartley); settings: Cavia porcellus, concentration decreasing detrusor contraction by 50%
Source text: (§1) The activity of Compound (I) as a smooth muscle relaxant which is useful as a therapeutic agent for urinary incontinence can be observed, for example, using the following tests. In the following Test Examples 1 and 2, "IC50 " means the concentration of a test compound which induces the decrease in the contraction of detrusor muscle by 50%.
(§2) Male albino Hartley guinea pigs (350-550 g) were used as test animals. Each animal was exsanguinated to death under pentobarbital sodium anesthesia. The lower abdominal cavity was opened and its bladder was positioned. The connective tissue and the fat tissue around the bladder were removed, and the bladder was cleaned. After two pelvic nerves on the surface of the abdominal side of the bladder were dissected, the bladder was taken out on the entrance of ureter. The bladder was washed with a Krebs-Henseleit buffer [composition (mM): NaCl 118, KCl 4.7, MgSO4 1.2, KH2 PO4 1.2, CaCl2 2.5, NaHCO3 25, and D-glucose 11.1], and then put on a gauze patch soaked in the buffer in a Petri dish. The dome and the trigone of the bladder were dissected and discarded. The back of the bladder was cut vertically in the middle with scissors, and the bladder was put flat on the gauze patch. The dome tip and the side of the trigone of the bladder were dissected and discarded, and the mucosa of the bladder was removed. The back of the bladder was cut vertically to get 6 strips which are ca. 2.0 mm wide and ca. 10 mm long.
(§3) One end of each strip was fixed on a plastic supporter rod, and the other end was fixed on a clip connected to a suture thread. The supporter was fixed in 20 ml of an organ bath and the suture thread connected to the clip was fixed on a force-displacement transducer (NIHON KODEN TB-611T). The tissue was suspended in a Krebs-Henseleit buffer, and the bath solution was warmed to 37° C. and bubbled with a gas mixture of 5% CO2 and 95% O2. The pH of the solution was adjusted to about 7.4. The transducer was connected to a polygraph (NIHON KODEN AP-621G), and the change of tension was recorded on a recorder (YOKOGAWA type 3066). The polygraph was graduated by 0.5 g/cm.
The effect of a smooth muscle relaxant varies with the concentration of KCl based on the difference of an action mechanism. In the following Test Example, KCl was used at a concentration different from that in Test Example 1.
A sample of the excised bladder was prepared in the same manner as in Test Example 1, and the tension of the preparation was measured. After the tension of the tissue was adjusted to be a steady state at 1 g, 15 mM KCl was applied. After the rhythmical contraction was confirmed to appear by KCl, the tissue was washed. Then, 15 mM KCl was applied again. After the rhythmical contraction took place constantly and the tissue reached the steady state, a test compound was applied by the cumulative method (half-logarithmic incremence). The contact time at each concentration was 30 minutes. The activity of the compound was expressed as the maximum relaxation rate (%) of the tension induced by the agonist.

[2] = test system: bladder; test: Test Example 4: micturition contraction interval in rats under partial restraint, oral; type: in vivo, rat (male SD strain); settings: Rattus norvegicus, 1.0 mg/kg oral, pre-administration = 100, second part of Table 4
Source text: As a control compound, cromakalim was used.

[3] = test system: detrusor muscle; test: Test Example 1: relaxation of guinea pig bladder strips contracted with 50 mM KCl; type: cell-based, guinea pig (male albino Hartley); settings: Cavia porcellus; contraction induced by 50 mM KCl; concentration decreasing detrusor contraction by 50%
Source text: as §1, §2, §3
After the tissue was incubated in the buffer for 15 minutes without preloading, tension was added thereto for about one hour. The preloading tension added was 1.5 g and it was relaxed to about 1 g. The tissue was washed at intervals of 15 minutes and the tension was adjusted to 1.5 g just before washing. The tension of the tissue was adjusted to be a steady state at 1 g. After this equilibrium time, 50 mM KCl (the whole content in the bath) was added, and the tissue was washed 10 minutes later. KCl was added to the tissue at intervals of 30 minutes, followed by washing 10 minutes later, and KCl was applied repeatedly until the developed tension induced by KCl becomes constant. When the tissue was confirmed to contract constantly by the application of KCl and relax to the steady state after washing, 50 mM KCl was applied again. After the tissue reached the steady state and the base line was obtained, a test compound was applied by the cumulative method (half-logarithmic incremence). The contact time at each concentration was 30 minutes. The activity of the compound was expressed as the maximum relaxation rate (%) of the tension induced by the agonist.

SMILES | IC50 [1] [µM] | response vs control in vivo at 1 mg/kg ([2]; 1 hr after administration) [%] | response vs control in vivo at 1 mg/kg ([2]; 2 hr after administration) [%] | response vs control in vivo at 1 mg/kg ([2]; 3 hr after administration) [%] | response vs control in vivo at 1 mg/kg ([2]; 4 hr after administration) [%] | response vs control in vivo at 1 mg/kg ([2]; 5 hr after administration) [%] | IC50 [3] [µM]
CC(O)(C(=O)Nc1ccc2c(c1)C(=O)c1ccccc1-2)C(F)(F)F (centres unmarked) [Compound 5, 2-(3,3,3-Trifluoro-2-hydroxy-2-methylpropanoylamino)fluoren-9-one] | 2.1 | 112 ± 7 | 136 ± 16.5 | 137 ± 14.5 | 132 ± 9.5 | 131 ± 17.7 | 8
CC(O)(C(=O)Nc1ccc2c(c1)C(=O)c1sccc1CO2)C(F)(F)F (centres unmarked) [Compound 16, 8-(3,3,3-Trifluoro-2-hydroxy-2-methylpropanoylamino)-4,10-dihydrothieno[3,2-c][1]benzoxepin-10-one] | 1.4 | 118 ± 7.9 | 132 ± 14.2 | 119 ± 9.8 | 127 ± 7.1 | 137 ± 12.6 | > 10
C[C@](O)(C(=O)Nc1ccc2c(c1)OCc1occc1C2=O)C(F)(F)F [Compound 37, (S)-7-(3,3,3-Trifluoro-2-hydroxy-2-methylpropanoylamino)-4,10-dihydrofuro[2,3-c][1]benzoxepin-4-one] | 0.2 | 114 ± 10.7 | 128 ± 6.5 | 126 ± 6.5 | 140 ± 10.2 | 144 ± 11.1 | 4.3
CC(O)(C(=O)Nc1cccc2c1C(=O)c1ccoc1CO2)C(F)(F)F (centres unmarked) [Compound 9, 5-(3,3,3-Trifluoro-2-hydroxy-2-methylpropanoylamino)-4,10-dihydrofuro[2,3-c][1]benzoxepin-4-one] | 4.6 | 123 ± 6.8 | 131 ± 9.3 | 133 ± 9.1 | 145 ± 10 | 155 ± 12.2 | 4.3
CC(O)(C(=O)Nc1cccc2c1C(=O)c1occc1CO2)C(F)(F)F (centres unmarked) [Compound 15, 9-(3,3,3-Trifluoro-2-hydroxy-2-methylpropanoylamino)-4,10-dihydrofuro[3,2-c][1]benzoxepin-10-one] | 9.4 | 130 ± 9.5 | 128 ± 5.3 | 107 ± 16.5 | 121 ± 11.4 | 135 ± 12.6 | 7.1
CC(O)(C(=O)Nc1ccc2c(c1)OCc1ccsc1C2=O)C(F)(F)F (centres unmarked) [Compound 8, 7-(3,3,3-Trifluoro-2-hydroxy-2-methylpropanoylamino)-4,10-dihydrothieno[3,2-c][1]benzoxepin-10-one] | 0.5 | 130 ± 9.3 | 142 ± 12.6 | 144 ± 8.8 | 162 ± 14.6 | 189 ± 19.6 | 5.2
CC(O)(C(=O)Nc1cccc2c1C(=O)c1cccc(F)c1CO2)C(F)(F)F (centres unmarked) [Compound 20, 7-Fluoro-1-(3,3,3-trifluoro-2-hydroxy-2-methylpropanoylamino)-6,11-dihydrodibenz[b,e]oxepin-11-one] | 6 | 121 ± 3.9 | 147 ± 9.9 | 148 ± 20 | 156 ± 19.6 | 142 ± 15.8 | 2.3
CC(O)(C(=O)Nc1ccc2c(c1)C(=O)c1ccccc1CC2)C(F)(F)F (centres unmarked) [Compound 53, 3-(3,3,3-Trifluoro-2-hydroxy-2-methylpropanoylamino)-10,11-dihydro-5H-dibenzo[a,d]cyclohepten-5-one] | 2.9 | 108 ± 9.7 | 134 ± 12 | 148 ± 14 | 155 ± 11.9 | 168 ± 11.8 | > 10
CC(O)(C(=O)Nc1ccc2c(c1)OCc1occc1C2=O)C(F)(F)F (centres unmarked) [Compound 10, 7-(3,3,3-Trifluoro-2-hydroxy-2-methylpropanoylamino)-4,10-dihydrofuro[2,3-c][1]benzoxepin-4-one] | 1.9 | 132 ± 11.2 | 142 ± 17.5 | 158 ± 22.3 | 174 ± 29.9 | 183 ± 42.7 | 10
C[C@](O)(C(=O)Nc1cccc2c1C(=O)c1ccoc1CO2)C(F)(F)F [Compound 35, (S)-5-(3,3,3-Trifluoro-2-hydroxy-2-methylpropanoylamino)-4,10-dihydrofuro[2,3-c][1]benzoxepin-4-one] | 1 | 123 ± 8.8 | 124 ± 5.7 | 131 ± 9.8 | 138 ± 11 | 144 ± 8.9 | 31
CC(O)(C(=O)Nc1ccc2c(c1)OCc1ccccc1C2=O)C(F)(F)F (centres unmarked) [Compound 2, 3-(3,3,3-Trifluoro-2-hydroxy-2-methylpropanoylamino)-6,11-dihydrodibenz[b,e]oxepin-11-one] | 3.4 | 121 ± 6.2 | 135 ± 12.3 | 144 ± 16.3 | 141 ± 15.6 | 145 ± 16 | 3.6
